According to patent US20260325533A1, “CDK INHIBITOR COMPOUNDS” (ALEKSIA THERAPEUTICS, INC., priority 2023, published 2026):
Where two headings read alike, the source gives them in different places.

Columns and labels:
Format in all cases: biochemical
[1] = target: CDK6/CCND1 (Homo sapiens, UniProt Q00534); test: CDK6 homogeneous time-resolved fluorescence (HTRF) kinase assay; details: CDK6/CCND
Method: (§1) A CDK homogeneous time-resolved fluorescence (HTRF) assay was used to assess the potency of the compounds described herein.
(§2) To an untreated 384-well microtiter plate (ProxiPlate) was added 100 nL 100×test compound in DMSO and 5 μL 2×CDK enzyme in assay buffer (50 mM HEPES, 1 mM EGTA, 10 mM MgCl2, 0.01% Tween 20, 2 mM DTT). The plate was centrifuged at 800 RPM for 1 min then incubated for 20 min at 23 °C. 2.5 μL per well of 4×ATP and 2.5 μL 4×ULight™-eIF4E-binding protein 1 (Thr37/46) Peptide substrate were added to all wells. After addition, the plates were centrifuged at 800 RPM for 1 min. The plates were incubated at 23 °C for 60 min. 5 μL per well 4×EDTA solution were added to each well to stop the reaction. 5 μL 4×LANCE Ultra Europium-anti-phospho-eIF4E-binding protein 1 (Thr37/46) antibody were added to each well and the plate was centrifuged for 1 min at 800 RPM. The plate was incubated for 60 min at 23 °C. Fluorescence was read at 340 nm excitation and 665 nm emission on an EnVision 2105 fluorescence reader. The final concentrations of reagents in the activity assay were 1 nM CDK6/CCND1, 1 mM ATP, 50 nM ULight™-eIF4E-binding protein 1 (Thr37/46) Peptide substrate, 1% DMSO, 10 mM EDTA, and 2 nM LANCE Ultra Europium-anti-phospho-eIF4E-binding protein 1 (Thr37/46).
(§3) Dose-response titrations were conducted by using an 11-point, half-logarithmic serial dilution scheme typically starting at 10 μM. Signals were reported as fluorescence units at 665 nm or the ratio of fluorescence units at 665 nm/fluorescence units at 615 nm. Signals are referred to below as “Lance signals”.
(§4) Using this assay, the IC50 values of example compounds were determined. Table 3 illustrates the IC50 for various Example compounds of Formula IA. Table 4 illustrates the IC50 for various other Example compounds of Formula I. ND=not determined.

[2] = target: CDK2/CCNE1 (Homo sapiens, UniProt P24941); test: CDK2 homogeneous time-resolved fluorescence (HTRF) kinase assay; details: CDK2/CCNE
Method in brief: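 3 nM CDK2/CCNE1 was preincubated with compound for 20 min at 23 °C in HEPES buffer (pH not stated), then reacted 60 min with 1 mM ATP and 50 nM ULight-4E-BP1 (Thr37/46) peptide. After EDTA stop, Eu-anti-phospho-4E-BP1 antibody (2 nM) was added for 60 min and TR-FRET read at 665 nm.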

[3] = target: CDK1/CCNB1 (Homo sapiens, UniProt P06493); test: CDK1 homogeneous time-resolved fluorescence (HTRF) kinase assay; details: CDK1/CCNB
Chain of CDK1/CCNB1 (P06493 whole entry): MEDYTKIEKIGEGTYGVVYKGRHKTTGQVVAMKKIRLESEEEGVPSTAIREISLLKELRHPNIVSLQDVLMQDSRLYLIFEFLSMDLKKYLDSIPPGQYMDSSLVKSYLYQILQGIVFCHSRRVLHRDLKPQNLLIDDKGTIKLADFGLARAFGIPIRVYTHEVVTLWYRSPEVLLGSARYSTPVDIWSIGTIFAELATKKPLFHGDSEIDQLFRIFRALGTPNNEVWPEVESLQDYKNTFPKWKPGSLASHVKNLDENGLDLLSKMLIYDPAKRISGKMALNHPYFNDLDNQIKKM
Chain of CDK1/CCNB1 (P14635 whole entry partner): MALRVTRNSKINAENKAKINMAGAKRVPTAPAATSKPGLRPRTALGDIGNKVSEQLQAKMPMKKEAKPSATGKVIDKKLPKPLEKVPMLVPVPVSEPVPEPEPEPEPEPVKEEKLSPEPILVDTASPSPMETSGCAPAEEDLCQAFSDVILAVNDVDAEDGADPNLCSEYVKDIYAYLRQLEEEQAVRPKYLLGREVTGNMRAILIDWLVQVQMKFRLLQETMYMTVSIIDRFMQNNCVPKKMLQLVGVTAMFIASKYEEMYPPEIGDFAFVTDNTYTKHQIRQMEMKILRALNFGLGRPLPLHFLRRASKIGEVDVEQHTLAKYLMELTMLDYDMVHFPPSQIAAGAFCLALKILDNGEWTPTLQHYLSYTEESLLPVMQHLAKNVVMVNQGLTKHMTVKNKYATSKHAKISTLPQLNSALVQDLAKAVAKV
Method in brief: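 HTRF assay with 0.5 nM CDK1/CCNB1, 1 mM ATP, 50 nM ULight-eIF4E-BP1 (Thr37/46) peptide; compound preincubated 20 min, reaction 60 min at 23 °C, EDTA stop, Eu-anti-phospho antibody detection. 11-point half-log titration from 10 μM, 1% DMSO; IC50 from 665 nm or 665/615 signal.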

[4] = target: CDK4/CCND3 (Homo sapiens, UniProt P11802); test: CDK4 homogeneous time-resolved fluorescence (HTRF) kinase assay; details: CDK4/CCND
Chain of CDK4/CCND3 (P11802 whole entry): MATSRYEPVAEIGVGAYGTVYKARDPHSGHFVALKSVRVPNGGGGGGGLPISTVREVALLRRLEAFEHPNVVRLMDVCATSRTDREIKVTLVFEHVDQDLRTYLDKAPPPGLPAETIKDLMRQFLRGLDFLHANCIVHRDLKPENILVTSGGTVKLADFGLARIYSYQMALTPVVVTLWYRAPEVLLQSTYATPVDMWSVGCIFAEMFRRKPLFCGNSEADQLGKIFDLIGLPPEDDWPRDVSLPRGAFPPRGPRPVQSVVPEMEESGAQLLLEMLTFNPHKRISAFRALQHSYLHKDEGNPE
Chain of CDK4/CCND3 (P30281 whole entry partner): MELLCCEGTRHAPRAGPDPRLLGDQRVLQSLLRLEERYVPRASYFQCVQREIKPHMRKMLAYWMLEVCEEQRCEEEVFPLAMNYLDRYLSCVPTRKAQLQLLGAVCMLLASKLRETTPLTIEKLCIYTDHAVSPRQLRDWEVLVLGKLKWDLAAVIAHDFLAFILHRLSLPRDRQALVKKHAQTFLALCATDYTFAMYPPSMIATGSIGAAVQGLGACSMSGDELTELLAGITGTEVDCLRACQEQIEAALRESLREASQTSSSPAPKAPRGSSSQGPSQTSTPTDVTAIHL
Method: as §1
as §2, with “were 1.5” for “were 1”, “nM CDK4/CCND3,” for “nM CDK6/CCND1,”
as §3, §4

[5] = 25-250 nM marked x, read-out: CDK6/CCND IC50 25-250 nM
[6] = <25 nM, read-out: CDK2/CCNE IC50 <25 nM
[7] = >250 nM marked x, read-out: CDK1/CCNB IC50 >250 nM
[8] = 25-250 nM marked x, read-out: CDK4/CCND IC50 25-250 nM
[9] = <25 nM, read-out: CDK6/CCND IC50 <25 nM
[10] = 25-250 nM marked x, read-out: CDK1/CCNB IC50 25-250 nM
[11] = <25 nM, read-out: CDK4/CCND IC50 <25 nM
[12] = x = IC50 25-250 nM, read-out: CDK1/CCNB IC50 (25-250 nM)
[13] = x = IC50 25-250 nM, read-out: CDK4/CCND IC50 (25-250 nM)
[14] = x = IC50 <25 nM, read-out: CDK2/CCNE IC50 (<25 nM)
[15] = x = IC50 >250 nM, read-out: CDK6/CCND IC50 (>250 nM column)
[16] = x = IC50 >250 nM, read-out: CDK4/CCND IC50 (>250 nM column)

Chain of CDK6/CCND1 (Q00534 whole entry): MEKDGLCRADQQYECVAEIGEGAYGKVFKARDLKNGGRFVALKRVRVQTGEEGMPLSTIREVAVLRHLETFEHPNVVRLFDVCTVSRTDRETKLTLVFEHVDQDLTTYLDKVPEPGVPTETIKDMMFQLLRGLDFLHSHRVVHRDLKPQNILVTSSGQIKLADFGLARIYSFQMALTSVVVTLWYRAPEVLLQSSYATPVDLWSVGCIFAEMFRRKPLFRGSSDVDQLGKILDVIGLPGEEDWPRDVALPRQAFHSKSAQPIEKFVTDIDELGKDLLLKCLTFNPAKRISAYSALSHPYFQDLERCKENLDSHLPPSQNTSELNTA
Chain of CDK6/CCND1 (P24385 whole entry partner): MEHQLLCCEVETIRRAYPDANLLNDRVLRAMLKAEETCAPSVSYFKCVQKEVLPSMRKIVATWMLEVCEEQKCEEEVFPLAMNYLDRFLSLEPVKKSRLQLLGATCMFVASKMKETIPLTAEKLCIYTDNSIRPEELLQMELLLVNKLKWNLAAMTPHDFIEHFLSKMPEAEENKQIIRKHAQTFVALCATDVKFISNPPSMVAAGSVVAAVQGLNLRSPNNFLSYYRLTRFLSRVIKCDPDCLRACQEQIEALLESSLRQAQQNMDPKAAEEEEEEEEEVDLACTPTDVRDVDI

SMILES: CS(=O)(=O)N1CCC(Nc2cc3c(N4CCC(O)C4)nccc3cn2)CC1 (racemic) [Ex 26, 1-(7-((1-(methylsulfonyl)piperidin-4-yl)amino)-2,6-naphthyridin-1-yl)pyrrolidin-3-ol]
- IC50 [1, 5]: 25 to 250 nM
- IC50 [2, 6]: < 25 nM
- IC50 [3, 7]: > 250 nM
- IC50 [4, 8]: 25 to 250 nM

SMILES: CC1CCCCN1c1nccc2cnc(NC3CCN(S(C)(=O)=O)CC3)cc12 (racemic) [Ex 34, 5-(2-methylpiperidin-1-yl)-N-(1-(methylsulfonyl)piperidin-4-yl)-2,6-naphthyridin-3-amine]
- IC50 [1, 9]: < 25 nM
- IC50 [2, 6]: < 25 nM
- IC50 [3, 10]: 25 to 250 nM
- IC50 [4, 11]: < 25 nM

SMILES: CS(=O)(=O)N1CCC(Nc2cc3c(N4CCCC(C#N)C4)nccc3cn2)CC1 (racemic) [Ex 39, 1-(7-((1-(methylsulfonyl)piperidin-4-yl)amino)-2,6-naphthyridin-1-yl)piperidine-3-carbonitrile]
- IC50 [1, 9]: < 25 nM
- IC50 [2, 6]: < 25 nM
- IC50 [3, 10]: 25 to 250 nM
- IC50 [4, 8]: 25 to 250 nM

SMILES: CS(=O)(=O)N1CCC(Nc2cc3c(N4CCCC(CO)C4)nccc3cn2)CC1 (racemic) [Ex 40, (1-(7-((1-(methylsulfonyl)piperidin-4-yl)amino)-2,6-naphthyridin-1-yl)piperidin-3-yl)methanol]
- IC50 [1, 5]: 25 to 250 nM
- IC50 [2, 6]: < 25 nM
- IC50 [3, 10]: 25 to 250 nM
- IC50 [4, 8]: 25 to 250 nM

SMILES: CCS(=N)(=O)c1ccc(Nc2cc3c(C#Cc4ccc5c(c4)NC(=O)C54CC4)nccc3cn2)cc1 (racemic) [Ex 376, 6'-((7-((4-(ethylsulfonimidoyl)phenyl)amino)-2,6-naphthyridin-1-yl)ethynyl)spiro[cyclopropane-1,3'-indolin]-2'-one]
- IC50 ([1]; x = IC50 25-250 nM, read-out: CDK6/CCND IC50 (25-250 nM)): 25 to 250 nM
- IC50 [3, 12]: 25 to 250 nM
- IC50 [4, 13]: 25 to 250 nM

SMILES: CNC(=O)C1CCCN(c2nccc3cnc(NC4CCN(S(C)(=O)=O)CC4)cc23)C1 (single isomer, unassigned) [Ex 33, N-methyl-1-(7-((1-(methylsulfonyl)piperidin-4-yl)amino)-2,6-naphthyridin-1-yl)piperidine-3-carboxamide]
- IC50 [1, 5]: 25 to 250 nM
- IC50 [3, 7]: > 250 nM
- IC50 [4, 11]: < 25 nM

SMILES: CS(=O)(=O)N1CCC(Nc2cc3c(N4CCC(C#N)C4)nccc3cn2)CC1 (single isomer, unassigned) [Ex 261, 1-(7-((1-(methylsulfonyl)piperidin-4-yl)amino)-2,6-naphthyridin-1-yl)pyrrolidine-3-carbonitrile]
- IC50 [1, 5]: 25 to 250 nM
- IC50 [3, 7]: > 250 nM
- IC50 [4, 8]: 25 to 250 nM

SMILES: CCS(=N)(=O)c1ccc(Nc2cc3c(C#Cc4ccc5c(c4)NC(=O)C54CC4)nccc3cn2)c(OC)c1 (single isomer, unassigned) [Ex 290, 6'-((7-((4-(ethylsulfonimidoyl)-2-methoxyphenyl)amino)-2,6-naphthyridin-1-yl)ethynyl)spiro[cyclopropane-1,3'-indolin]-2'-one]
- IC50 [1, 5]: 25 to 250 nM
- IC50 [3, 10]: 25 to 250 nM
- IC50 [4, 8]: 25 to 250 nM

SMILES: CC(C)S(=N)(=O)c1ccc(Nc2cc3c(C#Cc4ccc5c(c4)NC(=O)C5(C)CO)nccc3cn2)cc1 (single isomer, unassigned) [Ex 329, 3-(hydroxymethyl)-3-methyl-6-((7-((4-(propan-2-ylsulfonimidoyl)phenyl)amino)-2,6-naphthyridin-1-yl)ethynyl)indolin-2-one]
- IC50 [1, 5]: 25 to 250 nM
- IC50 [4, 11]: < 25 nM

SMILES: Cc1cc2c(cc1C#Cc1nccc3cnc(Nc4ccc(S(=N)(=O)C(C)C)cc4)cc13)NC(=O)C2(C)C (single isomer, unassigned) [Ex 343, 3,3,5-trimethyl-6-((7-((4-(propan-2-ylsulfonimidoyl)phenyl)amino)-2,6-naphthyridin-1-yl)ethynyl)indolin-2-one]
- IC50 [2, 14]: < 25 nM
- IC50 [3, 12]: 25 to 250 nM
- IC50 [4, 13]: 25 to 250 nM

SMILES: CC(C)S(=N)(=O)c1ccc(Nc2cc3c(C#Cc4ccc5c(c4)NC(=O)C54CCC4)nccc3cn2)cc1 (single isomer, unassigned) [Ex 384, 6'-((7-((4-(propan-2-ylsulfonimidoyl)phenyl)amino)-2,6-naphthyridin-1-yl)ethynyl)spiro[cyclobutane-1,3'-indolin]-2'-one]
- IC50 [1, 15]: > 250 nM
- IC50 [4, 16]: > 250 nM

SMILES: CS(=O)(=O)N1CCC(Nc2cc3c(-c4ccc(C#N)nc4)nccc3cn2)CC1 [Ex 61, 5-(7-((1-(methylsulfonyl)piperidin-4-yl)amino)-2,6-naphthyridin-1-yl)picolinonitrile]
- IC50 [1, 5]: 25 to 250 nM
- IC50 [3, 7]: > 250 nM
- IC50 [4, 8]: 25 to 250 nM

SMILES: CS(=O)(=O)N1CCC(Nc2cc3c(-c4ccc(N5CCOCC5)cc4)nccc3cn2)CC1 [Ex 65, N-(1-(methylsulfonyl)piperidin-4-yl)-5-(4-morpholinophenyl)-2,6-naphthyridin-3-amine]
- IC50 [1, 5]: 25 to 250 nM
- IC50 ([2]; 25-250 nM marked x, read-out: CDK2/CCNE IC50 25-250 nM): 25 to 250 nM
- IC50 [4, 8]: 25 to 250 nM

SMILES: CCC1(CC)C(=O)Nc2cc(C#Cc3nccc4cnc(Nc5ccc(S(=O)(=O)C6CC6)cc5)cc34)ccc21 [Ex 408, 6-((7-((4-(cyclopropylsulfonyl)phenyl)amino)-2,6-naphthyridin-1-yl)ethynyl)-3,3-diethylindolin-2-one]
- IC50 [1, 15]: > 250 nM
- IC50 ([3]; x = IC50 >250 nM, read-out: CDK1/CCNB IC50 (>250 nM column)): > 250 nM
- IC50 [4, 16]: > 250 nM

SMILES: CC1(C)C(=O)Nc2cc(C#Cc3nccc4cnc(Nc5ccc(S(C)(=O)=O)cc5F)cc34)ccc21 [Ex 438, 6-((7-((2-fluoro-4-(methylsulfonyl)phenyl)amino)-2,6-naphthyridin-1-yl)ethynyl)-3,3-dimethylindolin-2-one]
- IC50 [1, 15]: > 250 nM
- IC50 [2, 14]: < 25 nM
- IC50 [4, 16]: > 250 nM

SMILES: CC(=O)NCCn1cc2c(C)c(-c3nccc4cnc(Nc5ccc(S(C)(=O)=O)cc5)cc34)ccc2n1 [Ex 632, N-(2-(4-methyl-5-(7-((4-(methylsulfonyl)phenyl)amino)-2,6-naphthyridin-1-yl)-2H-indazol-2-yl)ethyl)acetamide]
- IC50 [1, 15]: > 250 nM
- IC50 ([2]; x = IC50 25-250 nM, read-out: CDK2/CCNE IC50 (25-250 nM)): 25 to 250 nM
- IC50 [4, 16]: > 250 nM
